Measured values from US20240353411A1, “HE4 DETECTING PEPTIDE AND USE THEREOF” (Ajou University Industry-Academic Cooperation Foundation, priority 2022, published 2024).
No end group written: not given here.

Experiments:
HE4 protein [1] = biological target: T1, HE4 protein (Homo sapiens, UniProt Q14508); experiment: Binding affinity Kd, synthesized peptide vs fluorescently labeled protein, Monolith NT.115; details: HE4 protein labeled RED-NHS, read-out: binding affinity Kd (dissociation constant)
T1 construct: purchased Sinobiological, PA, USA
T1 sequence (Q14508 31-124): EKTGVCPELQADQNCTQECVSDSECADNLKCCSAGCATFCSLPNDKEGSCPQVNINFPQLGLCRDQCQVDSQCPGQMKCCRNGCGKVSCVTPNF
Method: (§1) In order to evaluate the binding affinity and specificity of the discovered SEQ ID NO: 1 peptide to the CA125 protein, and the binding affinity and specificity of the SEQ ID NO: 2 peptide to HE4, ELISA assay was performed according to the manufacturer's instructions using CA125 protein (R&D Systems Inc, MN, USA), HE4 protein (Sinobiological, PA, USA), HRP-conjugated M13 antibody (Sinobiological, PA, USA), and TMB solution (Thermo Scientific, MA, USA). In addition, to measure the binding affinity Kd (dissociation constant), the discovered peptides of SEQ ID NO: 1 and SEQ ID NO: 2 were synthesized (Biostem, Suwon, Korea), CA125 protein and HE4 protein were each fluorescently labeled using Protein Labeling kit RED-NHS 2nd Generation (NanoTemper Technologies, Munich, Germany). Afterwards, the binding affinity between peptide and protein was measured using Monolith NT.115 (NanoTemper Technologies, Munich, Germany) according to the manufacturer's instructions.

HE4 protein [2] = biological target: T1, HE4 protein; experiment: ELISA assay of binding and specificity to HE4 protein; details: HRP-conjugated M13 antibody, TMB, FIG. 1
Method: as §1

CA125 protein [3] = biological target: T2, CA125 protein (Homo sapiens, UniProt Q8WXI7); experiment: ELISA assay of binding and specificity to CA125 protein; details: HRP-conjugated M13 antibody, TMB, FIG. 1
T2 construct: purchased R&D Systems Inc, MN, USA
T2 sequence (Q8WXI7 12660-12923 limits assumed): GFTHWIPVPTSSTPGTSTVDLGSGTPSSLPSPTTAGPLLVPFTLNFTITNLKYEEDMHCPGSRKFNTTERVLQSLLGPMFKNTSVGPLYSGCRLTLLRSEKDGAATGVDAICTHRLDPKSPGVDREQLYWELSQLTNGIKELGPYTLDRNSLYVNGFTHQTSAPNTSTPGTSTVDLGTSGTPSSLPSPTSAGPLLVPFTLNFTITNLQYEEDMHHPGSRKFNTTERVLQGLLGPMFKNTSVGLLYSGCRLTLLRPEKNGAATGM
Method: as §1

CA125 protein [4] = biological target: T2, CA125 protein; experiment: Binding affinity Kd, synthesized peptide vs fluorescently labeled protein, Monolith NT.115; details: CA125 protein labeled RED-NHS, read-out: binding affinity Kd (dissociation constant)
Method: as §1

Substance | Kd (HE4 protein [1]) | specific binding to the HE4 protein (HE4 protein [2]) | specific binding to the CA125 protein (CA125 protein [3]) | Kd (CA125 protein [4])
LGSKPIN [SEQ ID NO: 2, LGSKPIN] | 15.3 ± 12 µM | specifically bound | – | –
HTHGAARVPDHR [SEQ ID NO: 1, HTHGAARVPDHR] | – | – | specifically bound | 0.0114 ± 0.00423 µM
